These are literature values, as cited in patent US12558321B2, “Pharmaceutical formulation” (CIPLA LIMITED, priority 2018, dated 2026).

Take `COC(=O)c1ccc2c(c1)NC(=O)/C2=C(\Nc1ccc(N(C)C(=O)CN2CCN(C)CC2)cc1)c1ccccc1` [Nintedanib]: the “solubility at neutral conditions” value (neutral conditions) was “poor solubility”. Further, the solubility in water result (water) is “slightly soluble in water”.
